Measurements as given in PubChem BioAssay (NCI).
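The compound was tested at five concentrations on cells cultured in 96-well plates, with a 48-hour exposure period. GI50 is the concentration that inhibits growth by half. Definition used: TGI = concentration required for complete inhibition of growth.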

What was measured:
Assay in all cases: growth of human tumour cells (NCI), 48 h
[1] = system: K-562 leukemia
[2] = system: PC-3 prostate
[3] = system: NCI/ADR-RES ovarian
[4] = system: RXF 393 renal
[5] = system: HCC-2998 colon
[6] = system: HCT-15 colon

| Structure (SMILES) | TGI [1] [µM] | TGI [2] [µM] | TGI [3] [µM] | TGI [4] [µM] | TGI [5] [µM] | TGI [6] [µM] | GI50 [1] [µM] | GI50 [2] [µM] | GI50 [3] [µM] | GI50 [5] [µM] | GI50 [6] [µM] | GI50 [4] [µM] |
| --- | --- | --- | --- | --- | --- | --- | --- | --- | --- | --- | --- | --- |
| O=P(O)(CCP(=O)(O)c1ccccc1)c1ccccc1 | > 100 | > 100 | > 100 | > 100 | > 100 | > 100 | – | – | – | – | – | – |
| O=C(Oc1ccc(Cl)cc1Cl)c1ccccc1Nc1ccnc(C(F)(F)F)c1 | 8.51 | 25.5 | 11.7 | – | 5.49 | 5.31 | 3.03 | 8.24 | 3.66 | 3.25 | 2.26 | – |
| O=[N+]([O-])c1ccc(C(c2c[nH]c3ccccc23)c2c[nH]c3ccccc23)cc1 | 48 | 28.4 | 27.5 | – | 39.3 | 29.7 | – | – | – | – | – | – |
| COc1cc(C2CC(c3ccc(C)cc3)=NN2C=O)ccc1Oc1ccnc2cc(Cl)ccc12 (stereo unspecified) | > 50 | > 50 | > 50 | 20.5 | > 50 | > 50 | > 50 | > 50 | > 50 | > 50 | > 50 | 4.16 |
| O=C(CN1CCN(c2ncccn2)CC1)Nc1ccc(Cl)cc1C(=O)c1ccccc1Cl | > 100 | > 100 | > 100 | > 100 | > 100 | > 100 | 32 | 9.47 | > 100 | > 100 | > 100 | > 100 |
| COc1ccc2nc(N/N=C(\C)c3ccccn3)cc(C)c2c1 | 1.3 | 5.68 | – | – | 2.06 | 1.65 | 0.303 | 0.433 | 0.274 | 0.348 | 0.0916 | – |
| O=C1NCc2ccc3c(-c4cccc(Cl)c4)c[nH]c3c21 | > 50 | > 50 | > 50 | > 15.4 | > 22.9 | > 50 | 0.134 | 0.281 | 0.175 | 0.734 | 0.163 | 0.296 |
| N#Cc1c(-c2nc3ccccc3s2)c(=O)oc2cc(O)ccc12 | > 100 | > 100 | > 100 | > 100 | > 100 | > 100 | – | – | – | – | – | – |
| CC(=O)n1c(COS(C)(=O)=O)nc2ccccc21 | – | > 100 | > 100 | > 100 | > 100 | > 100 | – | – | – | – | – | – |
| COc1ccc(-c2nn3ncccc3c2-c2ccnc(Nc3ccc(Cl)c(C(F)(F)F)c3)n2)cc1 | > 25 | > 25 | > 25 | > 24 | 20.8 | > 25 | 10.8 | 6.2 | 7.62 | 6.42 | 9.97 | 5.66 |
| COc1ccc(-c2nc3sc(C)cn3c2/C=C/C(=O)c2cc(OC)c(OC)c(OC)c2)cc1 | > 100 | 7.17 | 8.11 | – | 7.66 | > 100 | 3.13 | 2.28 | 2.8 | 3.71 | 3.35 | – |
| CNC(=O)c1cc(OC2CCC(NC(=O)Nc3ccc(Cl)c(C(F)(F)F)c3)CC2)ccn1 (stereo unspecified) | 17.3 | > 44.6 | 44.3 | 24.5 | 19.2 | 23.6 | 3.66 | 3.51 | 5.67 | 7 | 6.17 | 10.5 |
| Cc1ccc(-[n+]2c3cc(N)c(C)cc3nc3cc(C)c(Nc4ccccc4)cc32)cc1 | 2.69 | 1.77 | – | – | 1.82 | – | 0.0393 | 0.174 | – | 0.566 | – | – |
| CCN(CC)CCOc1nc2ccc(OC)cc2c2c1-c1ccc(OC)cc1C2=O | 2.54 | 2.91 | 2.85 | 2.55 | 6.68 | 2.27 | 0.502 | 1.3 | 0.848 | 1.31 | 0.584 | 1.21 |
| COc1cccc(C2CC(C)(N3CCCC3)Oc3cc4c(cc32)OCO4)c1O (stereo unspecified) | 41.9 | > 76.1 | 62.4 | > 80.6 | 48.2 | 70 | – | – | – | – | – | – |
| CS(=O)(=O)CCNCc1nc(-c2ccc3ncnc(Nc4ccc(F)c(Cl)c4)c3c2)cs1 | > 19.7 | > 25 | > 25 | > 25 | > 25 | > 25 | > 12.5 | 14.7 | 13.9 | > 25 | 17.5 | 9.75 |
| C=C1C(=O)O[C@H]2[C@H]1CC/C(COC(=O)c1cc3cc(F)ccc3[nH]1)=C\CC[C@@]1(C)O[C@@H]21 | 12.1 | 3.44 | 5.39 | 2.87 | 3.74 | 3.34 | 2.24 | 1.7 | 1.98 | 2.02 | 1.15 | 1.47 |
| COc1ccc2c(c1)[nH]c(=O)c1c3cc(C)c(C)cc3cn21 | 0.14 | 1.58 | – | 1.22 | 0.0802 | 0.363 | < 0.01 | < 0.01 | – | 0.0235 | < 0.0142 | < 0.01 |
| COc1ccc2c(c1)/C(=C\c1c(C)nc3sc(C)cn13)C(=O)N2C | > 100 | 62.4 | 4.04 | 48.3 | 4.68 | 40.3 | 1.83 | 6.9 | 1.32 | 1.37 | 2.73 | 4.84 |
| C=C1C(=O)O[C@H]2[C@H]1CC/C(Cn1cc(CNC(=O)Cc3cn(C(=O)c4ccc(Cl)cc4)c4ccc(OC)cc34)nn1)=C\CC[C@@]1(C)O[C@@H]21 | – | 3.71 | > 100 | 2.59 | – | 10.7 | – | 1.89 | 46.3 | – | 2.77 | 1.25 |
| Cc1ccc(CNc2c3ccccc3nc3ccccc23)cc1 | 13.1 | 7.11 | 5.35 | 3.41 | 3.74 | 4.42 | 1.97 | 1.87 | 1.74 | 1.72 | 1.8 | 1.68 |
